Data: patent US6861409B2, “Growth hormone secretagogues” (Zentaris AG, priority 2000, dated 2005)
Square brackets hold non-standard residues; d marks the D form. Peptide text beside a SMILES is read from it. dTrp(2-Me) = Cc1[nH]c2ccccc2c1C[C@@H](N)C(=O)O

Test system: plasma GH concentrations
Experiment: Growth hormone releasing activity in the infant rat (plasma GH by RIA)
Type: in vivo, Sprague Dawley rats
Settings: male 10-day-old rats, 300 μg/kg subcutaneously, plasma 15 min later
Method: Male 10-day-old Sprague Dawley rats, about 25 g body weight were used.
One hour before the experiments, pups were separated from their respective dams and were divided randomly into groups of eight each.
Pups were acutely challenged subcutaneously with 100 μl of solvent (DMSO, final dilution 1:300 in physiological saline), hexarelin (Tyr-Ala-His-D-Mrp-Ala-Trp-D-Phe-Lys-NH2, used as a reference drug), or new compounds (300 μg/kg) and killed by decapitation 15 min later.
Trunk blood was collected and centrifuged immediately. Plasma samples were stored at −20° C. until assayed for the determination of plasma GH concentrations.
Growth hormone concentrations in plasma were measured by RIA using materials provided by the National Institute of Diabetes, Digestive and Kidney Diseases (NIDDK) of the National Institute of Health U.S.A.
Values were expressed in terms of the NIDDK-rat-GH-RP-2 standard (potency 21 U/mg) as ng/ml of plasma.
The minimum detectable value of rat GH was about 1.0 ng/ml, and intraassay variability was about 6%.

Compound CC(C)(N)C(=O)NC(Cc1c[nH]c2ccccc12)C(=O)NC(CC1CNc2ccccc21)NC=O (racemic) [Example 48, H-Aib-(D)-Trp-(D)-3(R/S)-Dht-formyl] has a GH (Table 6 test series) of 17.49 ± 2.40 ng/mL.

CNC(C)(C)C(=O)NC(Cc1c[nH]c2ccccc12)C(=O)NC(CC1CNc2ccccc21)NC(C)=O (racemic) [Example 50, N(Me)-Aib-(D)-Trp-(D)-3(R/S)-gDht-acetyl] was tested, and the GH (Table 6 test series) was 11.17 ± 1.35 ng/mL.

CNC(C)(C)C(=O)NC(CC1CNc2ccccc21)C(=O)NC(Cc1c[nH]c2ccccc12)NC(C)=O (racemic) [Example 51, N(Me)-Aib-(D)-3(R/S)-Dht-(D)-gTrp-acetyl] showed a GH (Table 6 test series) of 19.38 ± 4.16 ng/mL.

For CNC(C)(C)C(=O)NC(Cc1c[nH]c2ccccc12)C(=O)NC(Cc1c[nH]c2ccccc12)NC=O [Example 3, N-Me-Aib-D-Trp-D-gTrp-CHO], the GH (Table 2 test series) was 86.6 ± 12.6 ng/mL.

CC(=O)NC(Cc1c[nH]c2ccccc12)NC(=O)C(Cc1c[nH]c2ccccc12)NC(=O)C(C)(C)N [Example 4, H-Aib-D-Trp-D-gTrp-C(O)CH3] showed a GH (Table 2 test series) of 104.7 ± 13.5 ng/mL.

CNC(C)(C)C(=O)N[C@H](Cc1c[nH]c2ccccc12)C(=O)N[C@H](Cc1c[nH]c2ccccc12)NC(C)=O [Example 5, N-Me-Aib-D-Trp-D-gTrp-C(O)CH3] gave a GH (Table 2 test series) of 175.5 ± 37.2 ng/mL.

O=CNC(Cc1c[nH]c2ccccc12)NC(=O)C(Cc1c[nH]c2ccccc12)NC(=O)C1CCNCC1 [Example 8, Isonipecotyl-D-Trp-D-gTrp-CHO] showed a GH (Table 3 test series) of 94.2 ± 8.6 ng/mL.

Compound CC(=O)NC(Cc1c[nH]c2ccccc12)NC(=O)C(Cc1c[nH]c2ccccc12)NC(=O)C1CCNCC1 [Example 9, Isonipecotyl-D-Trp-D-gTrp-C(O)CH3] has a GH (Table 3 test series) of 61.2 ± 10.8 ng/mL.

Compound CC(C)(N)C(=O)NC(Cc1c[nH]c2ccccc12)C(=O)NC(Cc1c[nH]c2ccccc12)NC=O (centres unmarked) [Example 13, H-Aib-(D)-Trp-gTrp-CHO] has a GH (Table 1 test series) of 58 ± 6.3 ng/mL.

CCC(=O)NC(Cc1c[nH]c2ccccc12)NC(=O)C(Cc1c[nH]c2ccccc12)NC(=O)C(C)(C)N [Example 19, Aib-D-Trp-gTrp-CO—CH2—CH3] gave a GH (Table 3 test series) of 79.8 ± 22.4 ng/mL.

For CC(C)(N)C(=O)NC(Cc1c[nH]c2ccccc12)C(=O)NC(Cc1c[nH]c2ccccc12)NC(=O)C1CCNCC1 [Example 22, Aib-D-Trp-gTrp-CO-piperidin-4-yl], the GH (Table 3 test series) was 153.6 ± 30.6 ng/mL.

Work on CNC(C)(C)C(=O)NC(Cc1c[nH]c2ccccc12)C(=O)NC(Cc1c[nH]c2ccccc12)NC(=O)C1CCNCC1 [Example 39, N-Me-Aib-D-Trp-D-gTrp-Isonipecotyl] yielded a GH (Table 4 test series) of 97.1 ± 21.0 ng/mL.

Work on CNC(C)(C)C(=O)N[C@H](Cc1c[nH]c2ccccc12)C(=O)N(C)[C@H](Cc1c[nH]c2ccccc12)NC(C)=O [Example 40, N-Me-Aib-D-Trp-N-Me-D-gTrp-C(O)CH3] yielded a GH (Table 4 test series) of 188.2 ± 28.5 ng/mL.

In the case of CC(C)(N)C(=O)NC(Cc1cccc2ccccc12)C(=O)NC(Cc1cccc2ccccc12)NC=O (centres unmarked) [Example 42, H-Aib-(D)-1-Nal-g-(D)-1-Nal-formyl], the GH (Table 5 test series) is reported as 25.05 ± 06.00 ng/mL.

For CC(C)(N)C(=O)NC(Cc1ccc2ccccc2c1)C(=O)NC(Cc1ccc2ccccc2c1)NC=O (centres unmarked) [Example 43, H-Aib-(D)-2-Nal-g-(D)-2-Nal-formyl], the GH (Table 5 test series) was 37.33 ± 19.74 ng/mL.

With CC(C)(N)C(=O)NC(Cc1ccc2ccccc2c1)C(=O)NC(Cc1c[nH]c2ccccc12)NC=O (centres unmarked) [Example 45, H-Aib-(D)-2-Nal-(D)-gTrp-formyl] the GH (Table 5 test series) was 13.91 ± 03.87 ng/mL.

CC(C)(N)C(=O)N[C@H](Cc1c[nH]c2ccccc12)C(=O)NC(Cc1cccc2ccccc12)NC=O (some centres unmarked) [Example 46, H-Aib-(D)-Trp-g-(D)-1-Nal-formyl] showed a GH (Table 5 test series) of 8.26 ± 01.09 ng/mL.

Work on CC(C)(N)C(=O)NC(Cc1c[nH]c2ccccc12)C(=O)NC(Cc1ccc2ccccc2c1)NC=O [Example 47, H-Aib-D-Trp-g-D-2-Nal-formyl] yielded a GH (Table 5 test series) of 9.04 ± 04.03 ng/mL.

In the case of CN(C)C(C)(C)C(=O)NC(Cc1c[nH]c2ccccc12)C(=O)NC(Cc1c[nH]c2ccccc12)NC=O (centres unmarked) [Example 52, N(Me)2-Aib-(D)-Trp-(D)-gTrp-formyl], the GH (Table 7 test series) is reported as 121.43 ± 29 ng/mL.

Compound CC(=O)NC(Cc1c[nH]c2ccccc12)NC(=O)C(Cc1c[nH]c2ccccc12)NC(=O)C(C)(C)N(C)C (centres unmarked) [Example 53, N(Me)2-Aib-(D)-Trp-(D)-gTrp-acetyl] has a GH (Table 7 test series) of 26.80 ± 5.64 ng/mL.

For NC1(C(=O)NC(Cc2c[nH]c3ccccc23)C(=O)NC(Cc2c[nH]c3ccccc23)NC=O)CC1 (centres unmarked) [Example 54, H-Acc^3-(D)-Trp-(D)-gTrp-formyl], the GH (Table 9 test series) was 7.89 ± 3.20 ng/mL.

NC1(C(=O)NC(Cc2c[nH]c3ccccc23)C(=O)NC(Cc2c[nH]c3ccccc23)NC=O)CCCC1 (centres unmarked) [Example 55, H-Acc^5-(D)-Trp-(D)-gTrp-formyl] showed a GH (Table 9 test series) of 11.46 ± 1.18 ng/mL.

In the case of NC1(C(=O)NC(Cc2c[nH]c3ccccc23)C(=O)NC(Cc2c[nH]c3ccccc23)NC=O)CCCCC1 (centres unmarked) [Example 56, H-Acc^6-(D)-Trp-(D)-gTrp-formyl], the GH (Table 9 test series) is reported as 8.49 ± 0.40 ng/mL.

Work on CCCC(N)(CCC)C(=O)NC(Cc1c[nH]c2ccccc12)C(=O)NC(Cc1c[nH]c2ccccc12)NC=O (centres unmarked) [Example 57, H-Dpg-(D)-Trp-(D)-gTrp-formyl] yielded a GH (Table 9 test series) of 18.38 ± 2.88 ng/mL.

CCNC(=O)NC(Cc1c[nH]c2ccccc12)NC(=O)C(Cc1c[nH]c2ccccc12)NC(=O)C(C)(C)N (centres unmarked) [Example 58, H-Aib-(D)-Trp-(D)-gTrp-C(O)NHCH2CH3] gave a GH (Table 10 test series) of 376.48 ± 43.24 ng/mL.

Work on CCNC(=O)NC(Cc1c[nH]c2ccccc12)NC(=O)C(Cc1c[nH]c2ccccc12)NC(=O)C(C)(C)NC (centres unmarked) [Example 59, N-Me-Aib-(D)-Trp-(D)-gTrp-C(O)NHCH2CH3] yielded a GH (Table 10 test series) of 179.53 ± 24.65 ng/mL.

With CC(C)(N)C(=O)NC(C)(Cc1c[nH]c2ccccc12)C(=O)NC(Cc1c[nH]c2ccccc12)NC=O [Example 60, H-Aib-(R)—Me-Trp-(D)-gTrp-formyl] the GH (Table 8 test series) was 21.02 ± 3.43 ng/mL.

CC(Cc1c[nH]c2ccccc12)(NC=O)NC(=O)C(Cc1c[nH]c2ccccc12)NC(=O)C(C)(C)N [Example 61, H-Aib-(D)-Trp-(R)-Me-gTrp-formyl] gave a GH (Table 8 test series) of 152.28 ± 43.76 ng/mL.

CNC(C)(C)C(=O)NC(Cc1c[nH]c2ccccc12)C(=O)NC(C)(Cc1c[nH]c2ccccc12)NC(C)=O [Example 62, H-Me-Aib-(D)-Trp-(R)-Me-gTrp-acetyl] gave a GH (Table 8 test series) of 171.78 ± 10.32 ng/mL.

Compound Cc1[nH]c2ccccc2c1C[C@@H](NC(=O)[C@@H](N)Cc1cnc[nH]1)C(=O)N[C@@H](C)C(=O)N[C@@H](Cc1c[nH]c2ccccc12)C(=O)N[C@H](Cc1ccccc1)C(=O)N[C@@H](CCCCN)C(N)=O [HEXARELIN, Tyr-Ala-His-D-Mrp-Ala-Trp-D-Phe-Lys-NH2, reference compound] (H-H[dTrp(2-Me)]AW[dF]K-NH2) has a GH (Table 1 test series) of 202 ± 32.7 ng/mL, a GH (Table 2 test series) of 134.5 ± 27.2 ng/mL and a GH (Table 3 test series) of 114.7 ± 8.4 ng/mL. For the same compound, the GH (Table 4 test series) was 114.5 ± 12.9 ng/mL, the GH (Table 5 test series) was 276.01 ± 23.5 ng/mL and the GH (Table 6 test series) was 91.61 ± 4.09 ng/mL. It also gave a GH (Table 7 test series) of 172.5 ± 38.53 ng/mL, a GH (Table 8 test series) of 172.5 ± 38.53 ng/mL and a GH (Table 9 test series) of 89.91 ± 3.04 ng/mL. It also gave a GH (Table 10 test series) of 172.5 ± 38.53 ng/mL.

“H-Aib-(D)-1-Nal-(D)-gTrp-formyl [Example 44]” gave a GH (Table 5 test series) of 15.04 ± 03.30 ng/mL.

Compound “H-Aib-(D)-3(R/S)-Dht-g-(D)-Trp-formyl [Example 49]” has a GH (Table 6 test series) of 24.35 ± 4.85 ng/mL.

For “H-Aib-D-Trp-N-Me-D-gTip-C(O)CH3 [Example 41]”, the GH (Table 4 test series) was 75.4 ± 15.0 ng/mL.

Pip-D-Trp-D-gTrp-C(O)CH3 [Example 7] was tested, and the GH (Table 3 test series) was 53.1 ± 6.6 ng/mL.

Pip-D-Trp-D-gTrp-CHO [Example 6] was tested, and the GH (Table 3 test series) was 109.7 ± 10.1 ng/mL.
